Assay results: patent US4442031A, “Immunopotentiating peptides” (Hoffmann-La Roche Inc., priority 1983, dated 1984)
Where no end group is shown, it is not given here.

Tests used:
[1] = tested on: delayed-type hypersensitivity (DTH); experiment: Restoration of delayed-type hypersensitivity (DTH) decreased by 5-FU in BDF1 mice; assay type: in vivo; conditions: i.p.; for DTH response %: % of control
Procedure: A poor prognosis is often observed in cancer patients with impaired immune response. Impaired immune response can be caused by the cancer itself, by chemotherapeutic agents, or by radiotherapy. Thus, therapeutic agents which restore impaired immune response in cancer patients are expected to play an important role in combination therapy. The restoration activity of the compounds of the invention on impaired cell-mediated immunity was determined by measuring the enhancement of delayed-type hypersensitivity (DTH), which was decreased to a great extent in mice treated with 5-fluorouracil (5-FU).
Female BDF1 mice (20-22 g, 11-12 weeks old) received (i.p. or p.o.) the compound to be tested on consecutive days one day before, concurrently with and 1 and 2 days after the 5-FU treatment. For DTH measurement, 10^8 chicken red blood cells (CRBC) were injected i.p. (or s.c. into the left hind footpad) and challenged s.c. into the right hind footpad at 3 and 7 days after the 5-FU treatment, respectively. Restoration activity was calculated by the following formula from the DTH response observed in the control group, 5-FU treated group treatment and the Test group treated both with 5-FU and the compound of the invention. Restoration activity was calculated by the formula: [formula]

[2] = tested on: Candida albicans ATCC 10231; experiment: Protective activity against Candida albicans infection in 5-FU immunosuppressed mice; assay type: in vivo; conditions: for Survivors Day 8 / Survivors Day 15: ddY mice; for Survivors at Day 8 after infection: Table 6, i.p., ten times with 5-FU, control 1/7
Procedure: In a series of examples, the compounds of formula I were tested for protective activity against opportunistic infections in immunosuppressed mice. Female ddY mice (6 weeks old) weighing about 26 g were pretreated daily for ten days with 5-fluorouracil (5-FU) (25 mg/kg/day, i.p.) and with thymosin α1 or with compounds of formula I (i.p.) at varying dosages. The mice were then infected with Candida albicans ATCC 10231 (1×10^5 cells or more) at 24 hour after the last treatment. One control group was administered 5-FU and saline solution and a second control group received neither 5-FU nor compound of formula I prior to infection with Candida albicans. The number of animals surviving eight days after infection with Candida albicans and 15 days after infection with Candida albicans is presented in the table below.
Normal mice (female ddY mice, 6 weeks old) were highly tolerant to infection with Candida albicans ATCC 10231 at relatively low dose (1-2×10^5 cells, iv.). However, when pretreated daily for ten times with 5-FU (25 mg/kg/day, ip.), the mice were susceptible to infection as shown in Table 6. […] Compound A was also shown to be active against infection with Pseudomonas aeruginosa 5E81-1 and Listeria monocytogenes EGD in the immunosuppressed mice (see Tables 7 and 8).

[3] = Table 3, first experiment, 5-FU plus 0.05 μg/kg/day
[4] = Table 3, first experiment, 5-FU plus 0.5 μg/kg/day
[5] = Table 3, first experiment, 5-FU plus 5.0 μg/kg/day
[6] = Table 3, second experiment, 5-FU plus 0.5 μg/kg/day
[7] = Table 3, second experiment, 5-FU plus 5.0 μg/kg/day
[8] = Table 3, second experiment, 5-FU plus 50.0 μg/kg/day
[9] = Example 8, 4.0 μg/kg i.p. daily for ten days with 5-FU
[10] = Example 8, 40.0 μg/kg i.p. daily for ten days with 5-FU

## KSEVVE [Compound B, L-Lysyl-L-seryl-L-glutamyl-L-valyl-L-valyl-L-glutamic acid]
[1]; Table 3, first experiment (control 8.5, 5-FU alone 4.8), 5-FU plus 0.05 μg/kg/day
  DTH response av. ± S.E. (0.1 mm): 7.2 ± 0.8 0.1 mm
[1]; Table 3, first experiment (control 8.5, 5-FU alone 4.8), 5-FU plus 0.5 μg/kg/day
  DTH response av. ± S.E. (0.1 mm): 6.5 ± 0.7 0.1 mm
[1]; Table 3, first experiment (control 8.5, 5-FU alone 4.8), 5-FU plus 5.0 μg/kg/day
  DTH response av. ± S.E. (0.1 mm): 8.5 ± 1.0 0.1 mm
[1]; [3]
  Restoration Activity(%): 65.0%
  DTH response %: 84.7%
[1]; [4]
  Restoration Activity(%): 48.0%
  DTH response %: 77.2%
[1]; [5]
  Restoration Activity(%): 100%
  DTH response %: 100%
[1]; Table 3, second experiment (control 15.1, 5-FU alone 8.1), 5-FU plus 0.5 μg/kg/day
  DTH response av. ± S.E. (0.1 mm): 8.5 ± 0.9 0.1 mm
[1]; Table 3, second experiment (control 15.1, 5-FU alone 8.1), 5-FU plus 5.0 μg/kg/day
  DTH response av. ± S.E. (0.1 mm): 8.3 ± 1.8 0.1 mm
[1]; Table 3, second experiment (control 15.1, 5-FU alone 8.1), 5-FU plus 50.0 μg/kg/day
  DTH response av. ± S.E. (0.1 mm): 9.4 ± 0.8 0.1 mm
[1]; [6]
  Restoration Activity(%): 6.5%
  DTH response %: 56.4%
[1]; [7]
  Restoration Activity(%): 3.1%
  DTH response %: 54.8%
[1]; [8]
  Restoration Activity(%): 18.3%
  DTH response %: 61.9%
[1]; Tables 2 and 3
  DTH restoration activity (in words): active
[2]; [9]
  Survivors Day 8: 6/7
  Survivors Day 15: 3/7
[2]; [10]
  Survivors Day 8: 3/7
  Survivors Day 15: 3/7
[2]; Example 9, 4.0 μg/kg i.p. daily for ten days with 5-FU
  Survivors Day 8: 5/7
[2]; Example 9, 40.0 μg/kg i.p. daily for ten days with 5-FU
  Survivors Day 8: 5/7
[2]; 4 μg/kg/day
  Survivors at Day 8 after infection: 5/7
[2]; 40 μg/kg/day
  Survivors at Day 8 after infection: 5/7
